Data reported in patent US4731109A, “Herbicidal 2-haloacetanilides” (Monsanto Company, priority 1982, dated 1988).

Key:
[1] = system: shattercane; test: Greenhouse pre-emergence GR15/GR85 selectivity test; type: in vivo; details: Table XVI
Description: (§1) A good grade of top soil is placed in aluminum pans and compacted to a depth of three-eighths to one-half inch from the top of the pan. On the top of the soil is placed a number of seeds or vegetative propagules of various plant species. The soil required to level fill the pans after seeding or adding vegetative propagules is weighed into a pan. The soil and a known amount of the active ingredient applied in a solvent or as a wettable powder suspension are thoroughly mixed, and used to cover the prepared pans. […] As an alternative procedure, the overhead irrigation may be omitted. Observations are made about 2-3 weeks after seeding and treatment.
(§2) A further guide to the effectiveness of a chemical as a selective herbicide is the "selectivity factor" ("SF") for a herbicide in given crops and weeds. The selectivity factor is a measure of the relative degree of crop safety and weed injury and is expressed in terms of the GR15 /GR85 ratio, i.e., the GR15 rate for the crop divided by the GR85 rate for the weed, both rates in kg/ha (lb/A). In the tables below, selectivity factors are shown in parenthesis following the GR85 rate for each weed; the symbol "NS" indicates "non-selective". Marginal or undetermined selectivity is indicated by a dash (--).
(§3) Unless otherwise noted; greenhouse tests in Table VI and in other tables below involved herbicide treatments by soil incorporation and an initial overhead irrigation followed by subirrigation as described above.

[2] = system: seedling johnsongrass; test: as above; type: in vivo; details: Table XVI
Description: as §1, §2, §3

[3] = system: Texas panicum; test: as above; type: in vivo; details: Table XVI
Description: as §1, §2, §3

[4] = system: alexandergrass; test: as above; type: in vivo; details: Table XV
Description: as §1, §2, §3

[5] = system: fall panicum; test: as above; type: in vivo; details: Table XVI
Description: as §1, §2, §3

[6] = system: red rice; test: as above; type: in vivo; details: Table XVI
Description: as §1, §2, §3

[7] = system: itchgrass; test: as above; type: in vivo; details: Table XVI
Description: as §1, §2, §3

[8] = system: Quackgrass; test: Herbicidal effect in a variety of soil types; type: in vivo; details: Table XVII C; for selectivity factor (GR15/GR85): in soybeans
Description: The herbicide treatments were by soil incorporation with seeds planted 0.375 in (0.95 cm) deep, with 0.25 in (0.64 cm overhead irrigation. Observations were made about three weeks after treatment. Selectivity factors are shown in parenthesis.

[9] = system: corn; test: Greenhouse pre-emergence GR15/GR85 selectivity test; type: in vivo
How it was run: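 Active ingredient mixed into cover soil over seeded pans (pre-emergence soil incorporation), initial overhead irrigation equal to 0.64 cm rainfall, then subirrigation. Scored about 2-3 weeks after seeding; GR15 (crop) and GR85 (weed) rates in kg/ha, selectivity factor = crop GR15 / weed GR85.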

[10] = system: Quackgrass; test: as above; type: in vivo
[11] = system: Yellow Nutsedge; test: as above; type: in vivo
[12] = system: rape; test: as above; type: in vivo; details: Table XV
Description: A good grade of top soil is placed in aluminum pans and compacted to a depth of three-eighths to one-half inch from the top of the pan. On the top of the soil is placed a number of seeds or vegetative propagules of various plant species. The soil required to level fill the pans after seeding or adding vegetative propagules is weighed into a pan. The soil and a known amount of the active ingredient applied in a solvent or as a wettable powder suspension are thoroughly mixed, and used to cover the prepared pans. After treatment, the pans are given an initial overhead irrigation of eater, equivalent to one-fourth inch (0.64 cm) rainfall, then watered by subirrigation as need to give adequate moisture for germination and growth. As an alternative procedure, the overhead irrigation may be omitted. Observations are made about 2-3 weeks after seeding and treatment.
In the discussion and tables of data below, reference is made to herbicide application rates symbolized as "GR15 " and "GR85 "; these rates are given in kilograms per hectare (kg/ha) which are convertible into pounds per acre (lbs/A) by dividing the kg/ha rate by 1.12.
as §2
Additionally, pre-emergence herbicidal data from other tests have established that compounds according to this invention also selectively suppress quackgrass, yellow nutsedge and/or other weeds in one or more of the crops cotton, peanuts, bush beans and/or rape. For example, in Table VI are presented data showing the herbicidal selectivity of the compounds of Examples 1 and 2 against quackgrass in rape and snap beans. Unless otherwise noted; greenhouse tests in Table VI and in other tables below involved herbicide treatments by soil incorporation and an initial overhead irrigation followed by subirrigation as described above.
In another greenhouse test, the compounds of Examples 3-5, 9 and 10 were tested for their herbicidal efficacy against a variety of resistant annual and perennial weeds in rape.

[13] = system: wild proso millet; test: as above; type: in vivo, wild proso millet (panicum milicaeum); details: Table XVI
Description: as §1, §2, §3

## CCOCN(C(=O)CCl)c1c(CC)cccc1C(F)(F)F [Example 9, N--(ethoxymethyl)-2'-trifluoromethyl-6'-ethyl-2-chloroacetanilide]
[1]
  GR85 Rate: 0.21 Kg/Ha
[1]; in lima beans
  selectivity factor (GR15/GR85): 3.6
[1]; in peanuts
  selectivity factor (GR15/GR85): 4.3
[2]
  GR85 Rate: 0.25 Kg/Ha
[2]; in lima beans
  selectivity factor (GR15/GR85): 3
[2]; in peanuts
  selectivity factor (GR15/GR85): 3.6
[3]
  GR85 Rate: 0.56 Kg/Ha
[3]; in lima beans
  selectivity factor (GR15/GR85): 1.3
[3]; in peanuts
  selectivity factor (GR15/GR85): 1.6
[4]
  GR85 Rate: 0.19 Kg/Ha
[4]; in rape
  selectivity factor (GR15/GR85): 5.2
[5]
  GR85 Rate: 0.13 Kg/Ha
[5]; in lima beans
  selectivity factor (GR15/GR85): 5.8
[5]; in peanuts
  selectivity factor (GR15/GR85): 6.9
[6]
  GR85 Rate: 0.42 Kg/Ha
[6]; in lima beans
  selectivity factor (GR15/GR85): 1.8
[6]; in peanuts
  selectivity factor (GR15/GR85): 2.1
[7]
  GR85 Rate: 0.53 Kg/Ha
[7]; in lima beans
  selectivity factor (GR15/GR85): 1.4
[7]; in peanuts
  selectivity factor (GR15/GR85): 1.7
[8]; Drummer silty clay
  GR85: 0.17 Kg/Ha
  selectivity factor (GR15/GR85): > 13
[8]; Florida muck
  GR85: 0.73 Kg/Ha
  selectivity factor (GR15/GR85): > 3
[8]; Ray silt loam
  GR85: 0.13 Kg/Ha
  selectivity factor (GR15/GR85): > 16.5
[8]; Sarpy silty clay
  GR85: 0.13 Kg/Ha
  selectivity factor (GR15/GR85): > 16.5
[8]; Wabash silty clay
  GR85: 0.24 Kg/Ha
  selectivity factor (GR15/GR85): 12.5
[9]; Table IV, Replicate #2
  GR15: 2.2 Kg/Ha
[9]; Table XII
  GR15: 2.5 Kg/Ha
[9]; Table XIII
  GR15: 1.7 Kg/Ha
[10]; Table IV, Replicate #2
  GR85: 0.20 Kg/Ha
[10]; Table XIII
  GR85: 0.36 Kg/Ha
[10]; in wheat
  selectivity against quackgrass in wheat: non-selective
[10]; quackgrass in corn, Table IV, Replicate #2
  selectivity factor (GR15/GR85): 11
[10]; quackgrass in corn, Table XIII
  selectivity factor (GR15/GR85): 4.7
[10]; quackgrass in soybeans, Table IV, Replicate #2
  selectivity factor (GR15/GR85): 10.5
[10]; quackgrass in soybeans, Table XIII
  selectivity factor (GR15/GR85): 4.7
[11]; Table IV, Replicate #2
  GR85: 0.17 Kg/Ha
[11]; Table XII
  GR85: 0.21 Kg/Ha
[11]; in cotton
  GR85: 0.47 kg/ha
  S.F. (GR15/GR85): 1.5
[11]; in rice
  selectivity with respect to yellow nutsedge in rice: non-selective
[11]; yellow nutsedge in corn, Table IV, Replicate #2
  selectivity factor (GR15/GR85): 13
[11]; yellow nutsedge in corn, Table XII
  selectivity factor (GR15/GR85): 12
[11]; yellow nutsedge in cotton, Table XII
  selectivity factor (GR15/GR85): 12
[11]; yellow nutsedge in soybeans, Table IV, Replicate #2
  selectivity factor (GR15/GR85): 12.5
[11]; yellow nutsedge in soybeans, Table XII
  selectivity factor (GR15/GR85): 9.5
[12]
  GR15 Rate: 0.98 Kg/Ha
[13]
  GR85 Rate: 0.56 Kg/Ha
[13]; in lima beans
  selectivity factor (GR15/GR85): 1.3
[13]; in peanuts
  selectivity factor (GR15/GR85): 1.6
